Assay in all cases: biochemical
Holding throughout (parameters): DiscoverX KinomeScan competition binding assay across human kinases; per cent of control at 10 and 100 uM

Assay [1] addresses TTK (Homo sapiens, UniProt P33981). Particulars: competition binding, % of control; read-out: Percent Control (100 uM Levosimendan). In a few lines:
(§1)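 Binding is expressed as %control, normalised between positive and negative control signals. The compound (levosimendan) was tested at 10 μM and 100 μM in the DiscoverX KinomeScan competition binding format against human kinases.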

Assay [2] deals with T1, TYK2(JH1domain-catalytic) (Homo sapiens, UniProt P29597).
T1 construct: JH1domain-catalytic
T1 sequence (P29597 whole entry): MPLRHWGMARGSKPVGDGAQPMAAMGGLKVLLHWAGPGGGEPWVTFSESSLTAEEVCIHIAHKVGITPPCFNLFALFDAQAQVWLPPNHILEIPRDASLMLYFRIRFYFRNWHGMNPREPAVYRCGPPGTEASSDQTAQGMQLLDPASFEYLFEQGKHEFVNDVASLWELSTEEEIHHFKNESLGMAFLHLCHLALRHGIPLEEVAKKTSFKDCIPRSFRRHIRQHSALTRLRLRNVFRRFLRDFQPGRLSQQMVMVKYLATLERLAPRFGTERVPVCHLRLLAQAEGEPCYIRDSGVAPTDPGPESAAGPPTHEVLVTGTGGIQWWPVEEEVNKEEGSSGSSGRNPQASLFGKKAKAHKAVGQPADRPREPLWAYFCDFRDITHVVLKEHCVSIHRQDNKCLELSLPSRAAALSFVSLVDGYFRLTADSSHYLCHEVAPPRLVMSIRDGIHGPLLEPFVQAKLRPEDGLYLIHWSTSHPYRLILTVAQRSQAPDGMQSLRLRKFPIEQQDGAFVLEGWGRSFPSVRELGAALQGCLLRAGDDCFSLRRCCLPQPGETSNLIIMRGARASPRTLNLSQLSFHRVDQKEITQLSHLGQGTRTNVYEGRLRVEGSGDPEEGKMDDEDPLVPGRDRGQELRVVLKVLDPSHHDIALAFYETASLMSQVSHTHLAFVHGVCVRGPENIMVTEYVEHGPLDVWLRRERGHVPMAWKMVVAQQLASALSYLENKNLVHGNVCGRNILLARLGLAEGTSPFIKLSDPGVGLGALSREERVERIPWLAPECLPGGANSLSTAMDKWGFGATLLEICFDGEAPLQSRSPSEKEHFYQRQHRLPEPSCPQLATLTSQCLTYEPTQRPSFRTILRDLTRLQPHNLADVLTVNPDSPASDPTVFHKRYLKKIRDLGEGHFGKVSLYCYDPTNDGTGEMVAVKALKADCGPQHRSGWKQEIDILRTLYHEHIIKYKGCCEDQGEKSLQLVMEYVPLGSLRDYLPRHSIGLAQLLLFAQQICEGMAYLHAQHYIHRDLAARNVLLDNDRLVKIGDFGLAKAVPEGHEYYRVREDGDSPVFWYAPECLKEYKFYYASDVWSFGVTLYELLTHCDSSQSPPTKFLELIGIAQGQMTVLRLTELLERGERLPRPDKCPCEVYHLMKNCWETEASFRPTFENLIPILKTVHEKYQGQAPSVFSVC
Particulars: competition binding, % of control. Summed up:
as §1

Assay [3] deals with NEK4 (Homo sapiens, UniProt P51957). The settings on record: competition binding, % of control; read-out: Percent Control (100 uM Levosimendan). Summed up:
as §1

Assay [4] deals with FYN (Homo sapiens, UniProt P06241). The settings on record: competition binding, % of control. Summed up:
as §1

Assay [5] addresses CDK7 (Homo sapiens, UniProt P50613). The settings on record: competition binding, % of control; read-out: Percent Control (100 uM Levosimendan). Summed up:
as §1

Assay [6] deals with TYRO3 (Homo sapiens, UniProt Q06418). The settings on record: competition binding, % of control; read-out: Percent Control (100 uM Levosimendan). Summed up:
as §1

Assay [7] deals with FER (Homo sapiens, UniProt P16591). Particulars: competition binding, % of control; read-out: Percent Control (100 uM Levosimendan). Summed up:
as §1

In assay [8] the target is T2, ABL1(F317L)-phosphorylated (Homo sapiens, UniProt P00519, F317L).
T2 construct: phosphorylated
The settings on record: competition binding, % of control; read-out: Percent Control (100 uM Levosimendan). Summed up:
as §1

Assay [9] concerns the target NLK (Homo sapiens, UniProt Q9UBE8). Particulars: competition binding, % of control; read-out: Percent Control (100 uM Levosimendan). Summed up:
as §1

Assay [10] concerns the target T3, QSK (Homo sapiens, UniProt Q9Y2K2).
T3 construct: gene SIK3
Particulars: competition binding, % of control; read-out: Percent Control (100 uM Levosimendan). In a few lines: as §1

Assay [11] deals with T4, MEK6 (Homo sapiens, UniProt P52564).
T4 construct: gene MAP2K6
Particulars: competition binding, % of control; read-out: Percent Control (100 uM Levosimendan). In a few lines:
as §1

The target of assay [12] is EPHA5 (Homo sapiens, UniProt P54756). Particulars: competition binding, % of control; read-out: Percent Control (100 uM Levosimendan). In a few lines: as §1
EPHA5, sequence (P54756 whole entry): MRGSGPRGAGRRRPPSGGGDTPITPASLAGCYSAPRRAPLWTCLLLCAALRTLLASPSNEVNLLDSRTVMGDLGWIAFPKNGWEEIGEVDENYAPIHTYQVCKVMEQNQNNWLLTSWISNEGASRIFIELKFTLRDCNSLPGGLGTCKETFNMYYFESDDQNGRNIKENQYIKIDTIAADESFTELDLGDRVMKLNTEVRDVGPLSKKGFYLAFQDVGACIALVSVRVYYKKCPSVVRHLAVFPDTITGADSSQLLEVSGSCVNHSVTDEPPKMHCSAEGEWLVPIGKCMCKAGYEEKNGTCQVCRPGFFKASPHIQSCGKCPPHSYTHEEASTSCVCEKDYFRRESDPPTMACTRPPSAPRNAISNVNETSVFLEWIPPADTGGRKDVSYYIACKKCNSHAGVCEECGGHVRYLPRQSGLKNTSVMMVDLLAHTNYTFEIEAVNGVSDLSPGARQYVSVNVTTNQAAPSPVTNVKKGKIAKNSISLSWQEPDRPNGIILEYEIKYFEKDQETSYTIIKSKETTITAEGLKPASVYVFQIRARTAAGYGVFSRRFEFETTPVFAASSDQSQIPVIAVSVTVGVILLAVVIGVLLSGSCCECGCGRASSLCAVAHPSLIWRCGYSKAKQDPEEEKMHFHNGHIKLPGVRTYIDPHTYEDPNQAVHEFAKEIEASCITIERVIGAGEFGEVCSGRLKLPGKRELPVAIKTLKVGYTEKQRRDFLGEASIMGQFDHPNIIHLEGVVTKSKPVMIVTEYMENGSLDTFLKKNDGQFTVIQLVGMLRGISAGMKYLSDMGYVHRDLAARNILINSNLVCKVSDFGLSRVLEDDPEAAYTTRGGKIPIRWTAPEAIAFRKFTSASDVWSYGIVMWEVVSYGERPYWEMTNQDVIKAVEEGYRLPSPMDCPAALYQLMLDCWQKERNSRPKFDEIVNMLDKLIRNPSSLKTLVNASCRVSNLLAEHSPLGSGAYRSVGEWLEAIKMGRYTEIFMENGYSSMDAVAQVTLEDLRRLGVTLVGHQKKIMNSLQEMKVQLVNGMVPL
Assay [13] deals with ULK3 (Homo sapiens, UniProt Q6PHR2). The settings on record: competition binding, % of control; read-out: Percent Control (100 uM Levosimendan). Summed up: as §1
The target of assay [14] is T5, YES (Homo sapiens, UniProt P07947).
T5 construct: gene YES1
T5 sequence (P07947 whole entry): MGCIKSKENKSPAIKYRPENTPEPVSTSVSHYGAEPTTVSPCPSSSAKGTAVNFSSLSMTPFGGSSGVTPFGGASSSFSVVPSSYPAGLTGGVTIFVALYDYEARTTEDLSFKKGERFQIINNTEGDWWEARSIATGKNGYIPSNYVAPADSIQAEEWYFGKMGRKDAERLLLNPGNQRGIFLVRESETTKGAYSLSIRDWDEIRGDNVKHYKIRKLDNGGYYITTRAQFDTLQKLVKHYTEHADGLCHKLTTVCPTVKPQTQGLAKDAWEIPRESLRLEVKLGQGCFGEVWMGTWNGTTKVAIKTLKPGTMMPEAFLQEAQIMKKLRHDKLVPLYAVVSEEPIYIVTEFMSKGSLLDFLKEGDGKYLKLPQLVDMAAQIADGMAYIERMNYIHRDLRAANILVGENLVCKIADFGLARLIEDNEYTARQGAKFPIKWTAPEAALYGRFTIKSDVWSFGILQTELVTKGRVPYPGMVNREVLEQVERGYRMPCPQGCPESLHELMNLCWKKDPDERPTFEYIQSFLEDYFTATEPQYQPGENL
Particulars: competition binding, % of control. Summed up: as §1

For assay [15], the target named is CDKL5 (Homo sapiens, UniProt O76039). The settings on record: competition binding, % of control; read-out: Percent Control (100 uM Levosimendan). In a few lines: as §1
Assay [16] has as its target T6, ABL1(F317I)-phosphorylated (Homo sapiens, UniProt P00519, F317I).
T6 construct: phosphorylated
Particulars: competition binding, % of control; read-out: Percent Control (100 uM Levosimendan). In a few lines:
as §1

The target in assay [17] is IGF1R (Homo sapiens, UniProt P08069). Particulars: competition binding, % of control; read-out: Percent Control (100 uM Levosimendan). Summed up: as §1
Assay [18] addresses T7, PIP5K2B (Homo sapiens, UniProt P78356).
T7 construct: gene PIP4K2B
The settings on record: competition binding, % of control. In a few lines:
as §1

The target in assay [19] is T8, YANK1 (Homo sapiens, UniProt Q8WU08).
T8 construct: gene STK32A
The settings on record: competition binding, % of control; read-out: Percent Control (100 uM Levosimendan). Summed up:
as §1

Setting [20] is: read-out: Percent Control (10 uM Levosimendan).
Setting [21] is: read-out: Percent Control (100 uM Levosimendan).

Results on one molecule are retold here after article PMC6576746, “Rational discovery of dual-indication multi-target PDE/Kinase inhibitor for precision anti-cancer therapy using structural systems pharmacology” (PLoS Computational Biology, 2019).

Each structure is given as a SMILES string.

FYN, sequence (P06241 whole entry): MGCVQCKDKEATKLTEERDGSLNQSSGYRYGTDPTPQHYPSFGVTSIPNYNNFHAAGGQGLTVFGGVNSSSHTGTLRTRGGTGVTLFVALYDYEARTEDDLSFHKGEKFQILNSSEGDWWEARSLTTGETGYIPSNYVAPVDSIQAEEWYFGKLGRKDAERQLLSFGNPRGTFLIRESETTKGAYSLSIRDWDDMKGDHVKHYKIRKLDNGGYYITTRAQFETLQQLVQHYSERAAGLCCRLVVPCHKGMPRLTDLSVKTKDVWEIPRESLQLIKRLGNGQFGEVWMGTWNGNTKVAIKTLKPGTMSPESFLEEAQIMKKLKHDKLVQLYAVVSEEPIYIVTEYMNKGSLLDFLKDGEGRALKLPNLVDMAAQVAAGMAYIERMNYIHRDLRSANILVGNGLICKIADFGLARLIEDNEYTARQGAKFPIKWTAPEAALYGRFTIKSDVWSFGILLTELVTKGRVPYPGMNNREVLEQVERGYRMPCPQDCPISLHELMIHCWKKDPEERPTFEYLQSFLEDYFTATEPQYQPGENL
T7 sequence (P78356 whole entry): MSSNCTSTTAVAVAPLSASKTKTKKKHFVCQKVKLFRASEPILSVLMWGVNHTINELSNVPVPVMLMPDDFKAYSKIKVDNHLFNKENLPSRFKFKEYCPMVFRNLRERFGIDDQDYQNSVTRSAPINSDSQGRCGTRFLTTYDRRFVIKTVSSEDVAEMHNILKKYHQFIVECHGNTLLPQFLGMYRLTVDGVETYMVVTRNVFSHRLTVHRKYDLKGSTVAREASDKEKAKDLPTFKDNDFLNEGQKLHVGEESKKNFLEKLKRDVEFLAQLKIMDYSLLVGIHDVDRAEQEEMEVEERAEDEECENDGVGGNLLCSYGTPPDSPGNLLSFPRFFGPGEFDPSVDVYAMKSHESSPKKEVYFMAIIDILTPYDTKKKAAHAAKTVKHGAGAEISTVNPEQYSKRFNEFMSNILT
T3 sequence (Q9Y2K2 whole entry): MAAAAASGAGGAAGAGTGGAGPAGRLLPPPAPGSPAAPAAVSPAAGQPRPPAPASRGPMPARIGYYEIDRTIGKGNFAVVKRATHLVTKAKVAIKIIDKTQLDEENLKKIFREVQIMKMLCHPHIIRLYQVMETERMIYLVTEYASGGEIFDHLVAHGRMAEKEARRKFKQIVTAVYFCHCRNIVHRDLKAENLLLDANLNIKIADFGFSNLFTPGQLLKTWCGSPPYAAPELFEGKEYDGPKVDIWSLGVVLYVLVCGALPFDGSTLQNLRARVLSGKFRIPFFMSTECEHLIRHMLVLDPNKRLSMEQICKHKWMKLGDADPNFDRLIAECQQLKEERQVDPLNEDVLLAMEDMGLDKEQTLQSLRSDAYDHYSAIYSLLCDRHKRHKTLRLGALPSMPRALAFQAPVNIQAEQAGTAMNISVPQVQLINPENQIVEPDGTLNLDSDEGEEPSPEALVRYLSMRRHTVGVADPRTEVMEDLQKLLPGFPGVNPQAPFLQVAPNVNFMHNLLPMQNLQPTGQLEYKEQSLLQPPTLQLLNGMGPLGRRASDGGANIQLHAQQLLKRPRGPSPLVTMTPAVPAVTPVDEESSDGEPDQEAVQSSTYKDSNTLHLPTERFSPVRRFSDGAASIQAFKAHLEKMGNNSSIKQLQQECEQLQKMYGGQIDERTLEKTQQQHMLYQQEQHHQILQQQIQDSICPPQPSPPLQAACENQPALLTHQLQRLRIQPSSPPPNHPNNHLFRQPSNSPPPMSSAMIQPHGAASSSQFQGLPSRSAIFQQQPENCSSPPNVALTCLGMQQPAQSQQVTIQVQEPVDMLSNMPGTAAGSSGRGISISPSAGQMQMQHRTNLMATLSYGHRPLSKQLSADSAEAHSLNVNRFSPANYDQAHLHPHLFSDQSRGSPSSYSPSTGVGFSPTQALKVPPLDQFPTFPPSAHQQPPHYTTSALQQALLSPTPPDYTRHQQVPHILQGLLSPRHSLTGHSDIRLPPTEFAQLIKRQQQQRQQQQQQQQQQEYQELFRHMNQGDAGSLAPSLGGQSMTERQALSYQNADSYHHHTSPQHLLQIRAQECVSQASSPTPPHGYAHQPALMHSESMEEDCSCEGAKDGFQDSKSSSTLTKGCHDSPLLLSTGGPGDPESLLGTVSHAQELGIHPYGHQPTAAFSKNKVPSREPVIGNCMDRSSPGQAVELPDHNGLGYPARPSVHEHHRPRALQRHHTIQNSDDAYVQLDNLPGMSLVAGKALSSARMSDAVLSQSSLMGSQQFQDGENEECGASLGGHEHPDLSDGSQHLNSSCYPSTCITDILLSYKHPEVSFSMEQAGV

As for `C[C@@H]1CC(=O)NN=C1c1ccc(NN=C(C#N)C#N)cc1` [levosimendan], the remaining binding at 100 µM in assay [1] stood at 86%; in assay [2] (setting [21]) it was 27%; in assay [3], 100%; in assay [4] (setting [21]) it was 47%; in assay [5], 100%; in [6], 94%. In addition, the remaining binding at 100 µM in [7] turned out to be 100%; in [8] it was 59%; in assay [9] it was 100%; in assay [10] it was 82%; in assay [11], 100%; in assay [12] it was 100%. Also, the remaining binding at 100 µM in assay [13] worked out at 77%; in assay [14] (setting [21]) it was 0%; in assay [15], 94%; in assay [16] it was 100%; in [17], 86%; in assay [18] (setting [21]), 14%. The remaining binding at 100 µM in [19] came to 94%. In addition, the remaining binding at 10 µM in [2] (setting [20]) is 85%; in assay [4] (setting [20]), 96%; in assay [14] (setting [20]), 97%; in assay [18] (setting [20]) it was 92%.
